# Test results as given in patent US11091478B2 (Fochon Pharmaceuticals, Ltd., priority 2017, dated 2021).
# Tests used:
# DOHH2 cells = assay: Cell proliferation assay (MTS), DOHH2 cells, 120 h; format: cell-based; settings: Homo sapiens, DOHH-2, 120 h
# Method in brief: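 Treatment lasts 72 h for RS4;11 and 120 h for DOHH2 cells seeded at 5000 per well in serum-containing RPMI-1640. A 2 h MTS step, halted with 10% SDS, precedes dual-wavelength absorbance reading and IC50 fitting.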
# RS4;11 cells = assay: Cell proliferation assay (MTS), RS4;11 cells, 72 h; format: cell-based; settings: Homo sapiens, RS4-11, 72 h
# Description: Cell Proliferation Assays
# MTS testing kit was purchased from Promega. The RPMI-1640, Fetal bovine serum and Penicillin-Streptomycin were purchased from Gibco. Dimethyl sulfoxide (DMSO) was purchased from Sigma.
# To investigate whether a compound is able to inhibit the activity of BCL-2 in cells, a mechanism-based assay using DOHH2 (DSMZ No.® ACC 47) and RS4;11 (ATCC® CRL-1873™) cell was developed. In this assay, inhibition of Bcl-2 was detected by the inhibition of DOHH2 cells proliferation. DOHH2 cells were cultured in culture flasks to 40-80% confluence in RPMI-1640 plus 10% fetal bovine serum. Cells were collected and plated onto 96-well plates at desired cell density (5000 cells/well). Plates were incubated overnight at 37° C., with 5% CO2 to adhere. Compounds were added to the plates, and the final compound concentrations were 10000, 3333, 1111, […], 124, 41, 14, 4.6 and 1.5 nM. Plates plated with DOHH2 or RS4;11 cells were placed at 37° C., with 5% CO2 for 120 h (DOHH2) or 72 h (RS4;11) respectively. 20 μl MTS/100 μl medium mixture solution were added to each well and incubate the plates for exactly 2 hours. The reaction was stopped by adding 25 μl 10% SDS per well. Measure absorbance at 490 nm and 650 nm (reference wavelength). IC50 was calculated using GraphPad Prism 5.0.
# Select compounds prepared as described above were assayed according to the biological procedures described herein.
Structure (SMILES),IC50 (RS4;11 cells) [nM],IC50 (DOHH2 cells) [nM]
"CC1(C)CCC(CN2CCN(c3ccc(C(=O)NS(=O)(=O)c4cc5c(c([N+](=O)[O-])c4)N[C@@H](CCO)C5)c(Oc4cnc5[nH]ccc5c4)c3)CC2)=C(c2ccc(Cl)cc2)C1 [Example 1-19, (R)-2-((1H-pyrrolo[2,3-b]pyridin-5-yl)oxy)-4-(4-((4′-chloro-5,5-dimethyl-3,4,5,6-tetra-hydro-[1,1′-biphenyl]-2-yl)methyl)piperazin-1-yl)-N-((2-(2-hydroxyethyl)-7-nitro-indolin-5-yl)sulfonyl)benzamide]",93,96
"CC1(C)CCC(CN2CCN(c3ccc(C(=O)NS(=O)(=O)c4cc([N+](=O)[O-])c5[nH]c(CN6CCOCC6)cc5c4)c(Oc4cnc5[nH]ccc5c4)c3)CC2)=C(c2ccc(Cl)cc2)C1 [Example 1-21, 2-((1H-pyrrolo[2,3-b]pyridin-5-yl)oxy)-4-(4-((4′-chloro-5,5-dimethyl-3,4,5,6-tetra-hydro-[1,1′-biphenyl]-2-yl)methyl)piperazin-1-yl)-N-((2-(morpholino-methyl)-7-nitro-1H-indol-5-yl)sulfonyl)benzamide]",1,12
"COC(=O)C[C@@H]1Cc2cc(S(=O)(=O)NC(=O)c3ccc(N4CCN(CC5=C(c6ccc(Cl)cc6)CC(C)(C)CC5)CC4)cc3Oc3cnc4[nH]ccc4c3)cc([N+](=O)[O-])c2N1 [Example 1-22, methyl (S)-2-(5-(N-(2-((1H-pyrrolo[2,3-b]pyridin-5-yl)oxy)-4-(4-((4′-chloro-5,5-dimethyl-3,4,5,6-tetrahydro-[1,1′-biphenyl]-2-yl)methyl)piperazin-1-yl)benzoyl)sulfamoyl)-7-nitro-indolin-2-yl)acetate]",47,175
"CN(C)C(=O)C[C@@H]1Cc2cc(S(=O)(=O)NC(=O)c3ccc(N4CCN(CC5=C(c6ccc(Cl)cc6)CC(C)(C)CC5)CC4)cc3Oc3cnc4[nH]ccc4c3)cc([N+](=O)[O-])c2N1 [Example 1-23, (S)-2-((1H-pyrrolo[2,3-b]pyridin-5-yl)oxy)-4-(4-((4′-chloro-5,5-dimethyl-3,4,5,6-tetra-hydro-[1,1′-biphenyl]-2-yl)methyl)piperazin-1-yl)-N-((2-(2-(dimethylamino)-2-oxoeth-yl)-7-nitroindolin-5-yl)sulfonyl)benzamide]",20,57
"CC1(C)CCC(CN2CCN(c3ccc(C(=O)NS(=O)(=O)c4cc5c(c([N+](=O)[O-])c4)N[C@H](CC(=O)N4CCOCC4)C5)c(Oc4cnc5[nH]ccc5c4)c3)CC2)=C(c2ccc(Cl)cc2)C1 [Example 1-24, (S)-2-((1H-pyrrolo[2,3-b]pyridin-5-yl)oxy)-4-(4-((4′-chloro-5,5-dimethyl-3,4,5,6-tetra-hydro-[1,1′-biphenyl]-2-yl)methyl)piperazin-1-yl)-N-((2-(2-morpholino-2-oxoethyl)-7-nitroindolin-5-yl)sulfonyl)benzamide]",73,41
CN1CCN(C(=O)C[C@H]2Cc3cc(S(=O)(=O)NC(=O)c4ccc(N5CCN(CC6=C(c7ccc(Cl)cc7)CC(C)(C)CC6)CC5)cc4Oc4cnc5[nH]ccc5c4)cc([N+](=O)[O-])c3N2)CC1 [Example 1-25],6,6
"CC1(C)CCC(CN2CCN(c3ccc(C(=O)NS(=O)(=O)c4cc5c(c([N+](=O)[O-])c4)N[C@@H](CC(=O)N4CCOCC4)C5)c(Oc4cnc5[nH]ccc5c4)c3)CC2)=C(c2ccc(Cl)cc2)C1 [Example 1-26, (R)-2-((1H-pyrrolo[2,3-b]pyridin-5-yl)oxy)-4-(4-((4′-chloro-5,5-dimethyl-3,4,5,6-tetra-hydro-[1,1′-biphenyl]-2-yl)methyl)piperazin-1-yl)-N-((2-(2-morpholino-2-oxoethyl)-7-nitroindolin-5-yl)sulfonyl)benzamide]",12,102

# Further lines, with some results ahead:
IC50 (RS4;11 cells) [nM],Structure (SMILES),IC50 (DOHH2 cells) [nM]
1,"CN1CCN(C[C@H]2COc3cc(S(=O)(=O)NC(=O)c4ccc(N5CCN(CC6=C(c7ccc(Cl)cc7)CC(C)(C)CC6)CC5)cc4Oc4cnc5[nH]ccc5c4)cc([N+](=O)[O-])c3N2)CC1 [Example 2-1, (S)-2-((1H-pyrrolo[2,3-b]pyridin-5-yl)oxy)-4-(4-((4′-chloro-5,5-dimethyl-3,4,5,6-tetrahydro-[1,1′-biphenyl]-2-yl)methyl)piperazin-1-yl)-N-((3-((4-methylpiperazin-1-yl)methyl)-5-nitro-3,4-dihydro-2H-benzo[b][1,4]oxazin-7-yl)sulfonyl)benzamide]",6
2,CC1(C)CCC(CN2CCN(c3ccc(C(=O)NS(=O)(=O)c4cc5c(c([N+](=O)[O-])c4)N[C@H](CCN4CCOCC4)CO5)c(Oc4cnc5[nH]ccc5c4)c3)CC2)=C(c2ccc(Cl)cc2)C1 [Example 2-2],8
3,"CC1(C)CCC(CN2CCN(c3ccc(C(=O)NS(=O)(=O)c4cc5c(c([N+](=O)[O-])c4)N[C@H](CN4CCOCC4)CO5)c(Oc4cnc5[nH]ccc5c4)c3)CC2)=C(c2ccc(Cl)cc2)C1 [Example 2-5, (R)-2-((1H-pyrrolo[2,3-b]pyridin-5-yl)oxy)-4-(4-((4′-chloro-5,5-dimethyl-3,4,5,6-tetra-hydro-[1,1′-biphenyl]-2-yl)methyl)piperazin-1-yl)-N-((3-(morpholinomethyl)-5-nitro-3,4-dihydro-2H-benzo[b][1,4]oxazin-7-yl)sulfonyl)benzamide]",12
2,"CC1(C)CCC(CN2CCN(c3ccc(C(=O)NS(=O)(=O)c4cc5c(c([N+](=O)[O-])c4)N[C@H](CN4CCC(C)(O)CC4)CO5)c(Oc4cnc5[nH]ccc5c4)c3)CC2)=C(c2ccc(Cl)cc2)C1 [Example 2-6, (R)-2-((1H-pyrrolo[2,3-b]pyridin-5-yl)oxy)-4-(4-((4′-chloro-5,5-dimethyl-3,4,5,6-tetra-hydro-[1,1′-biphenyl]-2-yl)methyl)piperazin-1-yl)-N-((3-((4-hydroxy-4-methylpiperdin-1-yl)methyl)-5-nitro-3,4-dihydro-2H-benzo[b][1,4]oxazin-7-yl)sulfonyl)benzamide]",18
72,"CN(C)C[C@@H]1COc2cc(S(=O)(=O)NC(=O)c3ccc(N4CCN(CC5=C(c6ccc(Cl)cc6)CC(C)(C)CC5)CC4)cc3Oc3cnc4[nH]ccc4c3)cc([N+](=O)[O-])c2N1 [Example 2-7, (R)-2-((1H-pyrrolo[2,3-b]pyridin-5-yl)oxy)-4-(4-((4′-chloro-5,5-dimethyl-3,4,5,6-tetra-hydro-[1,1′-biphenyl]-2-yl)methyl)piperazin-1-yl)-N-((3-((dimethylamino)methyl)-5-nitro-3,4-dihydro-2H-benzo[b][1,4]oxazin-7-yl)sulfonyl)benzamide]",95
14,"CC1(C)CCC(CN2CCN(c3ccc(C(=O)NS(=O)(=O)c4cc5c(c([N+](=O)[O-])c4)N[C@H](CO)CO5)c(Oc4cnc5[nH]ccc5c4)c3)CC2)=C(c2ccc(Cl)cc2)C1 [Example 2-8, (R)-2-((1H-pyrrolo[2,3-b]pyridin-5-yl)oxy)-4-(4-((4′-chloro-5,5-dimethyl-3,4,5,6-tetra-hydro-[1,1′-biphenyl]-2-yl)methyl)piperazin-1-yl)-N-((3-(hydroxymethyl)-5-nitro-3,4-dihydro-2H-benzo[b][1,4]oxazin-7-yl)sulfonyl)benzamide]",67
10,"CN1CCN(CC[C@H]2COc3cc(S(=O)(=O)NC(=O)c4ccc(N5CCN(CC6=C(c7ccc(Cl)cc7)CC(C)(C)CC6)CC5)cc4Oc4cnc5[nH]ccc5c4)cc([N+](=O)[O-])c3N2)CC1 [Example 2-9, (S)-2-((1H-pyrrolo[2,3-b]pyridin-5-yl)oxy)-4-(4-((4′-chloro-5,5-dimethyl-3,4,5,6-tetra-hydro-[1,1′-biphenyl]-2-yl)methyl)piperazin-1-yl)-N-((3-(2-(4-methylpiperazin-1-yl)eth-yl)-5-nitro-3,4-dihydro-2H-benzo[b][1,4]oxazin-7-yl)sulfonyl)benzamide]",33
9,"CC1(C)CCC(CN2CCN(c3ccc(C(=O)NS(=O)(=O)c4cc5c(c([N+](=O)[O-])c4)N[C@@H](CCN4CCOCC4)CO5)c(Oc4cnc5[nH]ccc5c4)c3)CC2)=C(c2ccc(Cl)cc2)C1 [Example 2-10, (S)-2-((1H-pyrrolo[2,3-b]pyridin-5-yl)oxy)-4-(4-((4′-chloro-5,5-dimethyl-3,4,5,6-tetra-hydro-[1,1′-biphenyl]-2-yl)methyl)piperazin-1-yl)-N-((3-(2-morpholinoethyl)-5-nitro-3,4-dihydro-2H-benzo[b][1,4]oxazin-7-yl)sulfonyl)benzamide]",28
